Common to all, as to format: cell-based, human
Test [1] deals with TNF/antineutrophil cytoplasmic antibody stimulated neutrophils. Nature of the test: Respiratory burst in TNF/antineutrophil cytoplasmic antibody stimulated neutrophils (cytochrome c reduction). The settings on record: 10 ug/ml compound, TNFα 200 ng/ml, anti-MPO or anti-Pr3; FIGS. 5 and 6. The method, then: During the respiratory burst of activated neutrophils, reactive oxygen intermediates such as superoxide anion, hydroxyl radical, and hydrogen peroxide are produced. To determine the ability of compounds to affect syk dependent respiratory burst, superoxide anion production was measured in a microplate assay using the reduction of cytochrome c as a reporter assay. Respiratory burst can be induced through two different syk dependent signaling pathways, integrin mediated and Fc Receptor mediated. Compounds were tested in both pathways.
For respiratory burst assays, neutrophils (1×10^6) were added to microtiter plates that were coated with fibrinogen for integrin signaling or uncoated for Fc receptor signaling. […] At the end of the incubations, reduction of cytochrome c was quantified by measuring absorbance at 550 nm using a microplate reader. […]
(§1) Neutrophils were isolated from healthy human donors using Polymorphprep (Axis Shield). […] Reduction of cytochrome c was measured by reading absorbance at 550 nm with a 490 nm reference in a spectrophotometer. […]
as §1

Test [2] relates to neutrophils. Kind of test: Zymosan phagocytosis by neutrophils (CytoSelect 96-Well Phagocytosis Assay). Conditions: 10 ug/ml compound, zymosan 1.5 hrs; FIG. 10. As for the experimental part:
Inhibition of phagocytosis was carried out using the CytoSelect™ 96-Well Phagocytosis Assay (Cell Biolabs, Inc). The phagocytic target was zymosan (Saccharomyces cerevisiae), made from yeast cell wall. For this assay, neutrophils were seeded onto fibrinogen coated wells in the presence of inhibitor. Zymosan was added, and reactions incubated for 1.5 hr. Phagocytosis was detected by permeabilizing the cells and adding a detection reagent that was quantified colorimetrically in a plate reader at 405 nm.
Neutrophils were isolated from healthy human donors using Polymorphprep (Axis Shield). Cells were equilibrated for 15 minutes at 37° C. in the presence or absence of 10 ug/ml compound, then plated into 96 well plates previously coated with 2 ng/ml fibrinogen. The subsequent phagocytosis assay was carried out using a commercial phagocytosis assay (CytoSelect™ 96-Well Phagocytosis Assay (Zymosan), Cell Biolabs.) Briefly, cells were incubated with zymosan at 37° C. for 1.5 hrs., fixed with 8% formaldehyde for 5 minutes at room temperature, blocked, permeabilized and detection reagent added which detects phagocytosed zymosan. The reaction was developed by adding a substrate and the resulting colorimetric product was detected in a plate reader. ODs were corrected for relative confluence of the cells based on a visual estimate of confluence. Results are reported as corrected ODs.

The test system of test [3] is syk phosphorylation in integrin/TNF stimulated neutrophils. Nature of the test: syk phosphorylation in integrin/TNF stimulated neutrophils (in cell Western). Conditions: 10 ug/ml compound, TNFα 200 ng/ml, 1 hr; FIG. 11. The method, then:
Inhibition of syk phosphorylation was tested using the FACEMaker in cell Western Blot kit from Active Motif (Carlsbad, Calif.). In this assay, freshly isolated neutrophils were plated onto fibrinogen coated wells and stimulated with TNF at 200 ng/ml. After 1 hr., cells were fixed in formaldehyde and the Western Blot performed according to the kit instructions, with the final colorimetric product read in a plate reader. Results were corrected for cell number by subsequent staining of the cells with crystal violet and recording OD at 630 nm.
Neutrophils were isolated from healthy human donors using Polymorphprep (Axis Shield). Cells were equilibrated for 15 minutes at 37° C. in the presence or absence of 10 ug/ml compound. TNFα was added to a concentration of 200 ng/ml and cells dispensed into a 96 well strip plate previously coated with 2 mg/ml fibrinogen at 1×10^6 cells/well. Reactions were incubated at 37° C. for 1 hr., and cells fixed with 4% formaldehyde for 20 minutes at room temperature. […] The reaction was developed using the kit developing solution and the resulting colorimetric product read in a plate reader at 450 nm with a 650 nm reference. […]

The results in this text go back to US9212143B2, “Small molecule inhibitors of protein kinases” (priority 2010, dated 2015).

Consider `N#Cc1c(C(F)(F)F)cc(-c2ccc(Br)cc2)nc1SC(C(=O)O)c1ccccc1` (stereo not drawn) [Compound 1, α-[[6-(4-bromophenyl)-3-cyano-4-(trifluoromethyl)-2-pyridinyl]thio]-benzeneacetic acid], for which the “respiratory burst in TNF/antineutrophil cytoplasmic antibody stimulated neutrophils” value in test [1] is recorded as “stimulation”. Also, the “inhibition of zymosan phagocytosis by neutrophils” value in test [2] was “inhibition”. For the same compound, the “inhibition of syk phosphorylation in integrin/TNF stimulated neutrophils” value in test [3] is on record as “inhibition”.
